# Laboratory results as given in patent US11096928B2, “Pharmaceutical composition” (WUHAN LL SCIENCE AND TECHNOLOGY DEVELOPMENT CO., LTD., priority 2016, dated 2021).
# Experiments:
# [1] = system: spontaneously hypertensive rats; experiment: Antihypertensive efficacy test of pharmaceutical compositions in spontaneously hypertensive rats; assay type: in vivo, rat; conditions: SHR, intragastric once a day, 28 days after administration
# Method: After that, the blood pressure sensing catheter of hypertension implant was inserted into their abdominal aorta, while the implant was fixed to the abdominal wall, and then postoperative daily care was performed after suturing. […] A group of WKY rats (provided by Beijing Weitong Lihua Co., Ltd.) was set as a normal control group, which were administered intragastrically once a day at a volume calculated by 4 mL/kg for a total of 4 weeks. Each group were administered as follows: The normal control group were not administered; The blank control group were administered 0.5% CMC-Na; […] The valsartan group were administered valsartan dissolved in 0.5% CMC-Na, at a dose of 30 mg/kg; The Azilsartan kaMedoxoMil were administered Azilsartan kaMedoxoMil dissolved in 0.5% CMC-Na, at a dose of 1 mg (azilsartan effective dose)/kg; The AHU […] group were administered AHU 377 K, dissolved in 0.5% CMC-Na, at a dose of 30 mg/kg; The AHU377 ammonium salt group were administered AHU377 ammonium salt, dissolved in 0.5% CMC-Na, at a dose of 30 mg/kg; The LCZ696 group were administered LCZ696, dissolved in 0.5% CMC-Na, at a dose of 60 mg/kg; […]
# [2] = system: chronic heart failure rats; experiment: Therapeutic effect of pharmaceutical composition on chronic heart failure rats (high-salt fed DSS rats); assay type: in vivo, rat; conditions: high-salt (8% sodium chloride) fed DSS rats, administration for 7 weeks, analysis at 18-weeks-age
# Method: Five-week-old male DSS rats (purchased from Beijing Weitong Lihua Experimental Animal Technology Co., Ltd.) were randomly divided into 10 groups, among which, one group were fed with low salt as normal control group and the other 9 groups were fed with high salt. The low-salt feeding group were administered 0.3% sodium chloride, and high-salt feeding group were administered 8% sodium chloride to induce hypertension-cardiac hypertrophy-heart failure to form pathological model. […] The rats were killed at 18-weeks-age for analysis of blood pressure and atrial natriuretic peptide (ANP).
# [3] = system: rats with heart failure by coronary artery ligation (CAL); experiment: Therapeutic effect of pharmaceutical compositions on acute heart failure caused by coronary artery ligation; assay type: in vivo, rat; conditions: Sprague-Dawley rats, after 4 weeks of continuous administration; for EF (left ventricular ejection fraction): cardiac ultrasound
# Text: Male Sprague-Dawley rats (purchased from Beijing Weitong Lihua Experimental Animal Technology Co., Ltd.) were used to perform heart failure model by coronary artery ligation (CAL). One week after surgery, the myocardial infarct size of the rats was examined by echocardiography. […] Operations on the normal control group were the same as above, except for the absence of arterial ligation. Rats with successful modeling were randomly divided into 9 groups, wherein each group has 10 rats. […] Cardiac function was detected by cardiac ultrasound after 4 weeks of continuous administration, and changes of mean arterial pressure (MAP) and left ventricular ejection fraction (EF) were analyzed.
# [4] = system: spontaneously hypertensive rats; experiment: Antihypertensive efficacy test of the compound 1K in spontaneously hypertensive rats; assay type: in vivo, rat; conditions: SHR, intragastric, 1 mg/kg; for Heart rates change, 1 hour after administration / Systolic blood pressure change, 1 hour after administration / Heart rates change, 3 hours after administration / Systolic blood pressure change, 3 hours after administration / Heart rates change, 5 hours after administration / Systolic blood pressure change, 5 hours after administration / Heart rates change, 7 hours after administration / Systolic blood pressure change, 7 hours after administration / Heart rates change, 10 hours after administration / Systolic blood pressure change, 10 hours after administration / Heart rates change, 24 hours after administration / Systolic blood pressure change, 24 hours after administration / Heart rates change, before administration / Systolic blood pressure change, before administration: average ± standard error; for Heart rates change, before administration / Systolic blood pressure change, before administration: before administration (reference value)
# Method: 12-week-old spontaneously hypertensive rats (hereinafter referred to as SHR, purchased from Beijing Weitong Lihua Experimental Animal Technology Co., Ltd.) were anesthetized with 2.5% sodium pentobarbital for intraperitoneal injection. After that, the blood pressure sensing catheter of hypertension implant was inserted into their abdominal aorta, while the implant was fixed to the abdominal wall, and then postoperative daily care was performed after suturing. Rats with systolic blood pressure exceeding 160 mm Hg were divided into 3 groups (control group, compound 1 group and compound 1K group), wherein each group has 8 rats. The control group was administrated 0.5% sodium carboxymethyl cellulose (hereinafter referred to as CMC-Na); the compound 1 group and the compound 1K group were respectively administered the compound 1 and the compound 1K, both of which were dissolved by 0.5% CMC-Na, by intragastric administration, at a dose of 1 mg/kg (calculated by the effective dose of valsartan) and a volume calculated by 4 mL/kg. The systolic blood pressure and heart rate of SHR were compared before and after administration (the systolic blood pressure and heart rate of SHR before administration as reference value), which were detected three times at each time point with the average value recorded.
Structure (SMILES),heart rate change [1] [times/minute],systolic pressure change [1] [mmHg],ANP rate of change [2],systolic pressure change [2],MAP (mean arterial pressure) [3],EF (left ventricular ejection fraction) [3],"Heart rates change, 1 hour after administration [4] [times/minute]","Systolic blood pressure change, 1 hour after administration [4] [mmHg]","Heart rates change, 3 hours after administration [4] [times/minute]","Systolic blood pressure change, 3 hours after administration [4] [mmHg]","Heart rates change, 5 hours after administration [4] [times/minute]","Systolic blood pressure change, 5 hours after administration [4] [mmHg]","Heart rates change, 7 hours after administration [4] [times/minute]","Systolic blood pressure change, 7 hours after administration [4] [mmHg]","Heart rates change, 10 hours after administration [4] [times/minute]","Systolic blood pressure change, 10 hours after administration [4] [mmHg]","Heart rates change, 24 hours after administration [4] [times/minute]","Systolic blood pressure change, 24 hours after administration [4] [mmHg]","Heart rates change, before administration [4] [times/minute]","Systolic blood pressure change, before administration [4] [mmHg]",also measured
"CCOC(=O)[C@H](C)C[C@@H](Cc1ccc(-c2ccccc2)cc1)NC(=O)CCC(=O)O.N [AHU377 ammonium salt, Ammonium 4-(((2S,4R)-1-([1,1′-biphenyl]-4-yl)-5-ethoxy-4-methyl-5-oxopentane-2-yl)amino)-4-oxobutanoate]",3 ± 2.1,−18.5 ± 2.5,135.3p %,−18.3p am mmHg,172oup mmHg,–,–,–,–,–,–,–,–,–,–,–,–,–,–,–,–
"CCOC(=O)[C@H](C)C[C@@H](Cc1ccc(-c2ccccc2)cc1)NC(=O)CCC(=O)[O-].[K+] [AHU 377K, potassium 4-(((2S,4R)-1-([1,1′-biphenyl]-4-yl)-5-ethoxy-4-methyl-5-oxopentan-2-yl)amino)-4-oxobutanoate]",−8.1 ± 2.8,−15.6 ± 2.5,143.6p %,−20.6p7Km mmHg,170.6p7K mmHg,37.46p7K %,–,–,–,–,–,–,–,–,–,–,–,–,–,–,–
CCOc1nc2cccc(C(=O)OCc3oc(=O)oc3C)c2n1Cc1ccc(-c2ccccc2-c2noc(=O)[n-]2)cc1.[K+] [Azilsartan kaMedoxoMil],−11.1 ± 3.7,−33.5 ± 3.2,132.3s^ %,−36.3sium mmHg,150.4sium^ mmHg,45.14siu %,–,–,–,–,–,–,–,–,–,–,–,–,–,–,–
CCOc1nc2cccc(C(=O)OC(C)OC(=O)OCc3nc(C)c(C)nc3C)c2n1Cc1ccc(-c2ccccc2-c2noc(=O)[n-]2)cc1.[K+] (centres unmarked) [Compound 1K],−29.3 ± 4.1,−50.4 ± 4.7,158 ± 7%,−48.5 ± 7.5 mmHg,145.5 ± 8.9 mmHg,48.6 ± 5.3%,−3.6 ± 2.4,−7.0 ± 3.4,−5.0 ± 2.5,−34.3 ± 1.9,−10.1 ± 3.0,−46.5 ± 2.5,−17.5 ± 3.0,−49.4 ± 4.1,−25.4 ± 2.4,−45.3 ± 3.3,−28.6 ± 8,−25.9 ± 3.4,0.0 ± 0.0,0.0 ± 0.0,antihypertensive effect compared with the compound 1 group ([4]; result in words): more potent with longer-lasting antihypertensive effect; effect of lowering heart rate compared with the compound 1 group ([4]; result in words): more potent with longer-lasting effect of lowering heart rate
CCOc1nc2cccc(C(=O)OC(C)OC(=O)OCc3nc(C)c(C)nc3C)c2n1Cc1ccc(-c2ccccc2-c2noc(=O)[nH]2)cc1 (centres unmarked) [Compound 1],–,–,–,–,–,–,−3.4 ± 2.6,−4.9 ± 4.8,−2.33 ± 2.6,−22.0 ± 3.6,−6.5 ± 2.8,−30.5 ± 3.5,−6.2 ± 3.0,−38.8 ± 2.3,−12.3 ± 2.8,−33.0 ± 1.7,−6.7 ± 2.6,−10.2 ± 2.1,0.0 ± 0.0,0.0 ± 0.0,melting point: 135 to 145 °C
CCCCC(=O)N(Cc1ccc(-c2ccccc2-c2nnn[nH]2)cc1)[C@H](C(=O)O)C(C)C [valsartan],−10.6 ± 3.2,−30.6 ± 3.5,125 ± 52%,−32.4 ± 4.6 mmHg,–,35.3arta^ %,–,–,–,–,–,–,–,–,–,–,–,–,–,–,–
